Converted amounts (≈) assume the structure as drawn. Read-outs that look alike come from different tables or passages of the source.
Assays:
[1] = Stability of dosing formulations in corn oil; assay type: physicochemical
Text: (§1) Based on solubility, corn oil (Welsh, Holme & Clark Inc., Newark, NJ, USA) was used as the vehicle for all four PFASs. Gas chromatography (GC) with flame ionization detection (FID) was used for the analysis of the PFNAC, PFHI, and MHFPK formulations, and a high-performance liquid chromatography (HPLC) method with ultraviolet spectroscopy was used for the CTFPA formulation. The details of the dosing solution analytical conditions are summarized in supplemental Tables S1 and S2. These analytical methods were developed specifically for these subchronic toxicity studies. […] Dosing solutions were prepared and replaced between at least every 29 days and no more than every 39 days.
(§2) PFNAC, PFHI, and MHFPK were soluble in corn oil up to 67, 200, and 100 mg/mL, respectively. As solubility in aqueous vehicles was 40 mg/mL or less for all three chemicals, corn oil was chosen as the vehicle. PFNAC was stable at the ambient temperature for 51 days at target concentrations of 0.2 and 10 mg/mL PFHI was stable in corn oil at ambient temperatures and target concentrations of 1 and 80 mg/mL for up to 70 days. MFHPK was stable in corn oil at room temperature for up to 44 days at target concentrations of 5 and 100 mg/mL. CTFPA was soluble in both deionized (DI) water and corn oil at 200 mg/mL when stored refrigerated overnight. […] Thus, corn oil was chosen as the vehicle for CTFPA. The stability of the CTFPA in the corn oil was evaluated for 8, 13, 15, 23, 35, and 42 days stored refrigerated in plastic bottles. CTFPA at 40 mg/mL was stable for up to 42 days. CTFPA at 0.6 mg/mL was stable for up to […] when refrigerated in plastic bottles but by 42 days had decreased to approximately 81%.

[2] = Solubility in dosing vehicles; assay type: physicochemical
Text: as §1, §2

[3] = Parent chemical in rat plasma, 90-day study; assay type: in vivo; details: for concentration at 91 day: Sprague-Dawley, rat, plasma, oral; for Percentage of the dose in the plasma: 90 days
Method: Subchronic (90-day) studies were performed in accordance with current U.S. EPA’s Toxic Substances Control Act Good Laboratory Practice (GLP) Standards, with the following two general exceptions to the GLP guidelines: Analysis of the dose formulations was conducted according to RTI-approved Standard Operating Procedures, and corn oil (the vehicle) was not characterized (certificate of analysis from the vendor is available in the appendices to the final reports). Male and female Sprague–Dawley rats (five dose levels plus a control, n = 10/sex/dose group, corn oil vehicle dose volume of 3 mL/kg; oral gavage) were used in these studies, and the rats were euthanized on SD 91. The dose levels for PFHI were 0, 12.5, 25, 50, 100, and 200 mg/kg-day. The dose levels for MHFPK were 0, 18.8, 37.5, 75, 150, and 300 mg/kg-day. The dose levels for PFNAC were 0, 0.1, 0.3, 1.0, 3.0, and 10 mg/kg-day for male rats and 0, 0.3, 1.0, 3.0, 10, and 30 mg/kg-day for female rats. For CTFPA, the dose levels were 0, 1.9, 3.8. 7.5, 15, and 30 mg/kg-day for male rats and 0, 6.3, 12.5, 25, 50, and 100 mg/kg-day for female rats. For each PFAS, three batches of dosing solution were prepared. The time between the batch preparation of the dosing solutions ranged between 29 and 39 days. Blood samples were collected from all the rats at termination for serum chemistry, hematology, coagulation, and the analysis of the parent PFAS chemical in the plasma. In vivo data collection and further detail on the endpoints examined postmortem are described below.
On SD 1 of the 14-day study (~2 h post dosing), 0.2 mL of blood was collected via tail vein puncture in tubes containing K3EDTA and stored on wet ice. Prior to the scheduled euthanasia, blood (~1 mL) was collected from the jugular vein in tubes containing K3EDTA and stored on wet ice on SD 15, for the 14-day study, and SD 91, for the 90-day study. All the tubes were centrifuged at an ~1500 relative centrifugal force within 1 h of collection for 15 min at 5 ± 3 °C. The plasma was stored at −75 ± 15 °C until the analysis. PFNAC and PFHI were analyzed using a headspace GC–mass spectrometry (MS) method, as summarized in Table S3, and CTFPA was analyzed using an ultra-HPLC-MS method, as summarized in Table S4. The MHFPK samples were not analyzed because a method suitable for plasma was not available. The details concerning the preparation of the samples, method blanks, and matrix and QC standards for the analysis are available in the appendices to the study reports.

[4] = corn oil, oil or lipid, read-out: Solubility in corn oil

FC(F)(F)C(F)(F)C(F)(F)C(F)(F)CCI [PFHI, 1H,1H,2H,2H-Perfluorohexyl iodide]
Stable in corn oil for ([1]; ambient temperatures, 1 and 80 mg/mL): up to 70 days
solubility [2, 4]: ≤ 200 mg/mL
concentration at 91 day ([3]; female, Day 91, 50 mg/kg-day): 0.0122 ± 0.00991 µg/mL
concentration at 91 day ([3]; female, Day 91, 100 mg/kg-day): 0.0483 ± 0.0229 µg/mL
concentration at 91 day ([3]; female, Day 91, 200 mg/kg-day): 0.0767 ± 0.0241 µg/mL
concentration at 91 day ([3]; male, Day 91, 200 mg/kg-day): 0.0524 ± 0.0241 µg/mL
Parent chemical in plasma ([3]; female, Day 91, 12.5 mg/kg-day): BLOD (below the limit of detection—1.7 ng/mL)
Parent chemical in plasma ([3]; female, Day 91, 25 mg/kg-day): <BLOD/≤LOQ
Parent chemical in plasma ([3]; male, Day 91, 12.5 mg/kg-day): BLOD (below the limit of detection—1.7 ng/mL)
Parent chemical in plasma ([3]; male, Day 91, 25 mg/kg-day): <BLOD/≤LOQ
Parent chemical in plasma ([3]; male, Day 91, 50 mg/kg-day): 14.0 ± 6.21 ng/mL
Parent chemical in plasma ([3]; male, Day 91, 100 mg/kg-day): 43.8 ± 7.53 ng/mL

O=C(O)C(F)(Cl)C(F)(F)F (stereo not drawn) [CTFPA, 2-Chloro-2,3,3,3-tetrafluoropropanoic acid]
Concentration remaining in corn oil ([1]; 0.6 mg/mL, by 42 days, refrigerated): approximately 81%
Stable in corn oil for ([1]; 0.6 mg/mL, refrigerated in plastic bottles): up to 22 days
Stable in corn oil for ([1]; 40 mg/mL, refrigerated in plastic bottles): up to 42 days
pH of the DI water solution ([2]; DI water solution): < 1
solubility ([2]; corn oil, stored refrigerated overnight, read-out: Solubility in corn oil): 200 mg/mL (≈ 1110 mM)
solubility ([2]; deionized water, stored refrigerated overnight, read-out: Solubility in deionized (DI) water): 200 mg/mL (≈ 1110 mM)
concentration at 91 day ([3]; female, Day 91, 6.3 mg/kg-day): 12.6 µg/mL
concentration at 91 day ([3]; female, Day 91, 12.5 mg/kg-day): 24.7 µg/mL
concentration at 91 day ([3]; female, Day 91, 25 mg/kg-day): 51 µg/mL
concentration at 91 day ([3]; female, Day 91, 50 mg/kg-day): 71.5 µg/mL
concentration at 91 day ([3]; female, Day 91, 100 mg/kg-day): 116 µg/mL
concentration at 91 day ([3]; male, Day 91, 1.9 mg/kg-day): 12.6 µg/mL
concentration at 91 day ([3]; male, Day 91, 3.8 mg/kg-day): 22.3 µg/mL
concentration at 91 day ([3]; male, Day 91, 7.5 mg/kg-day): 43.3 µg/mL
concentration at 91 day ([3]; male, Day 91, 15 mg/kg-day): 62.1 µg/mL
concentration at 91 day ([3]; male, Day 91, 30 mg/kg-day): 84.4 µg/mL
Percentage of the dose in the plasma ([3]; female, 100 mg/kg-day): 4.48 ± 1.63%
Percentage of the dose in the plasma ([3]; male, 30 mg/kg-day): 10.82 ± 2.76%

C=CC(=O)OCC(F)(F)C(F)(F)C(F)(F)C(F)(F)C(F)(F)C(F)(F)C(F)(F)C(F)F [PFNAC, 1H,1H,9H-Perfluorononyl acrylate]
Stable in corn oil for ([1]; ambient temperature, 0.2 and 10 mg/mL): 51 days
solubility [2, 4]: ≤ 67 mg/mL
Parent chemical in plasma ([3]; female, Day 91, highest dose 30 mg/kg-day): Parent chemical not detected at the highest dose
Parent chemical in plasma ([3]; male, Day 91, highest dose 10 mg/kg-day): Parent chemical not detected at the highest dose

CC(=O)C(F)(F)C(F)(F)C(F)(F)F [MHFPK, Methyl heptafluoropropyl ketone]
Stable in corn oil for ([1]; room temperature, 5 and 100 mg/mL): up to 44 days
solubility [2, 4]: ≤ 100 mg/mL
